Read-outs that look alike come from different tables or passages of the source.
What was measured:
Assay type in all cases: biochemical
PKCα = PKCα (Homo sapiens, UniProt P17252); experiment: PKCα kinase Caliper assay; conditions: read-out: PKC IC50
Method: PKCα and cABLT315 Kinase Caliper Assays
Assays were performed in 384 well microtiter plates. Each assay plate contained 8-point serial dilutions for test compounds, as well as two 16-point serial dilutions of staurosporine as reference compound, plus 16 high- and 16 low controls. Liquid handling and incubation steps were done on a Thermo CatX workstation equipped with a Innovadyne Nanodrop Express. Between pipetting steps, tips were cleaned in wash cycles using wash buffer. Plates with terminated kinase reactions were transferred to the Caliper LC3000 workstations for reading. Phosphorylated and unphosphorylated peptides were separated using the Caliper microfluidic mobilitishift technology and Kinase activities were calculated from the amounts of formed phospho-peptide.
1. 0.05 μA Compound (start with 1.8 mM in 90% DMSO/10% H2O)
2. +4.5 μl 2× peptide/ATP solution
3. +4.5 μl 2× enzyme solution
4. Incubate for 60 min at 30° C.
4. +16 μl stop/run buffer
Independent of the kinase, all reactions were done performed in 50 mM HEPES, pH 7.5, 1 mM DTT, 0.02% Tween20, 0.02% BSA, and 0.6% DMSO.

GSK3β = GSK3β (Homo sapiens, UniProt P49841); experiment: GSK3β ATP depletion assay; conditions: read-out: GSK3b IC50
Sequence of GSK3β (P49841 whole entry, species assumed): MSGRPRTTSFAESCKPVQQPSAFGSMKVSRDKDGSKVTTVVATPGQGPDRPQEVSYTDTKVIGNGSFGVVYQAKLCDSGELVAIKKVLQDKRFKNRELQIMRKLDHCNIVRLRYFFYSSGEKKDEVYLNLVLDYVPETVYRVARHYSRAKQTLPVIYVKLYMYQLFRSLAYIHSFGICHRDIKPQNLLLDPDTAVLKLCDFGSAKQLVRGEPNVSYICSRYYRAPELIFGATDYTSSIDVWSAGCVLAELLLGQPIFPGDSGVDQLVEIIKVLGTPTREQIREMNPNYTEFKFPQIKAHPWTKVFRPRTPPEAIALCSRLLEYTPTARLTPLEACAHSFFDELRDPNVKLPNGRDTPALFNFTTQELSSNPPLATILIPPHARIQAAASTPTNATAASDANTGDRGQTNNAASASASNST
Procedure, shortened: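 Human GSK3β (5 nM) preincubated 15 min with 10 μM biotinylated phospho-CREB peptide in pH 7.5 Tris buffer (15 mM MgCl2, 1 mM DTT, 0.1% BSA, 2.5% DMSO). Reaction started with 2 μM ATP and run to about 50% ATP depletion. Remaining ATP measured by KinaseGlo luminescence.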

FLT3D835Y kinase = target: T1, FLT3D835Y kinase (Homo sapiens, UniProt P36888, D835Y); experiment: FLT3D835Y kinase inhibition assay (LanthaScreen TR-FRET); conditions: read-out: FLT3 IC50
T1 sequence (P36888 27-993 D835Y): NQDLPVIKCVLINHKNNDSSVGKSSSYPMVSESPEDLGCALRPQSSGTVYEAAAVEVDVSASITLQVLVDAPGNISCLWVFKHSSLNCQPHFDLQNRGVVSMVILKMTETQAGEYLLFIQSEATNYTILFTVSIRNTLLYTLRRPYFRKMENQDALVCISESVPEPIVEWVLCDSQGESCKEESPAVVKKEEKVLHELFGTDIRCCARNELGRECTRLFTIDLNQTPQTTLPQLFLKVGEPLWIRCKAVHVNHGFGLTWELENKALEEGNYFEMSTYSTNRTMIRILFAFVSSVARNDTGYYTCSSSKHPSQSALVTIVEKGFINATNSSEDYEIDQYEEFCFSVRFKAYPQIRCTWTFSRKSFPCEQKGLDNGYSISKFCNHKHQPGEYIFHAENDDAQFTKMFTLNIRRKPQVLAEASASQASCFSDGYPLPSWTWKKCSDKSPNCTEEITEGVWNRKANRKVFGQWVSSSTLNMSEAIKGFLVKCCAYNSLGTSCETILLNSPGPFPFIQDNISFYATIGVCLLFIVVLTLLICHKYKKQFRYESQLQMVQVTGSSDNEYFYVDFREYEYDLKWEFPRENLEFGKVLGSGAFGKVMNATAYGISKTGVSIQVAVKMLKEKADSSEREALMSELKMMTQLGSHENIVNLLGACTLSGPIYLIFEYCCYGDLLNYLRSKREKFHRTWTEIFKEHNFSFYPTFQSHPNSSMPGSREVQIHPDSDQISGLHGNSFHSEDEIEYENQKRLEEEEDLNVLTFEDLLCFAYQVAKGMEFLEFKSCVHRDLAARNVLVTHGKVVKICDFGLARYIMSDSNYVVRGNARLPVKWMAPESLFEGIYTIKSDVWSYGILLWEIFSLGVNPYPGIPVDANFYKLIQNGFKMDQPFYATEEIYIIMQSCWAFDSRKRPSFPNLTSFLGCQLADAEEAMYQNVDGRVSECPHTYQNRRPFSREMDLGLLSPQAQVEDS
Method: FLT3D835Y Kinase Inhibition Assay
LanthaScreen™ is the detection of Time-Resolved Fluorescence Resonance Energy Transfer (TR-FRET) using lanthanide chelates to measure interactions between various binding partners. The application of TR-FRET to assay kinase activity was first described by Mathis (1995). A TR-FRET assay was used to measure FLT3D835Y kinase inhibitory activity. The assay panel was run on a Biomek FX liquid handling workstations. To the assay plates containing […] compound or control solutions, 4.5 μL of buffer A (50 mM TRIS-HCl pH 7.4, 2 mM DTT, 0.02% Tween 20, 0.02 mM Na3VO4, H2O nanpure) including a generic concentration of ATP (2 μM f.c.) was added per well, followed by […] of buffer B (4 uM ATP in Buffer A) including a generic concentration of polyEAY (50 nM f.c.), FLT3D835Y kinase, and divalent cations. Final concentration of kinase and cations were: [FLT3D835Y kinase]=5.7 nM, [Mg]=3 mM, [Mn]=3 mM. After 1 hour of incubation the kinase reactions were stopped by the addition of 4.5 μL of stop solution D (50 mM EDTA, 20 mM TRIS-HCl pH 7.4, 0.04% NP-40) immediately followed by 4.5 μL of buffer A (50 mM TRIS-HCl pH 7.4, 2 mM DTT, 0.02% Tween 20, 0.02 mM Na3VO4, H2O nanpure) including the Tb-labeled P-20 antibody to give a total detection volume of […]. After an incubation time of 45 min in the dark, the plates were transferred into the Pherastar fluorescence reader for counting. The effect of compound on the enzymatic activity was obtained from the linear progress curves and determined from one reading (end point measurement).

SMILES	IC50 (PKCα)	IC50 (GSK3β)	IC50 (FLT3D835Y kinase)	IC50 (PKCα; PKCα Caliper assay)	IC50 (GSK3β; ATP depletion assay)
CC[C@H]1O[C@@H](c2ccncc2NC(=O)c2nc(-c3ccccc3)ncc2N)C[C@@H](O)[C@@H]1O [Example 39, 5-amino-N-(4-((2R,4R,5S,6R)-6-ethyl-4,5-dihydroxytetrahydro-2H-pyran-2-yl)pyridin-3-yl)-2-phenylpyrimidine-4-carboxamide]	> 10000 nM	267 nM	–	–	–
CC[C@]1(O)[C@H](O)C[C@H](c2ccncc2NC(=O)c2nc(-c3c(F)cccc3F)ncc2N)O[C@@H]1C [Example 143, 5-amino-2-(2,6-difluorophenyl)-N-(4-((2R,4R,5S,6R)-5-ethyl-4,5-dihydroxy-6-methyltetrahydro-2H-pyran-2-yl)pyridin-3-yl)pyrimidine-4-carboxamide]	> 10000 nM	102 nM	> 10000 nM	–	–
O=C(Nc1cnccc1[C@H]1C[C@@H](O)[C@@]2(O)CCCC[C@H]2O1)c1c[nH]cc(-c2ccccc2)c1=O [Example 178, N-(4-((2R,4R,4aS,8aR)-4,4a-dihydroxyoctahydro-2H-chromen-2-yl)pyridin-3-yl)-4-oxo-5-phenyl-1,4-dihydropyridine-3-carboxamide]	> 10000 nM	4250 nM	> 10000 nM	–	–
Nc1ncc(-c2ccccc2)nc1C(=O)Nc1cnccc1[C@H]1C[C@@H](N)[C@@]2(O)CCC[C@H]2O1 [Example 183, 3-amino-N-(4-((2R,4R,4aS,7aR)-4-amino-4a-hydroxyoctahydrocyclopenta[b]pyran-2-yl)pyridin-3-yl)-6-phenylpyrazine-2-carboxamide]	–	–	4.4 nM	34 nM	4.4 nM
CC[C@]1(O)[C@H](N)C[C@H](c2ccncc2NC(=O)c2ccc(F)c(-c3c(F)cccc3F)n2)O[C@@H]1C [Example 232, N-(4-((2R,4R,5S,6R)-4-amino-5-ethyl-5-hydroxy-6-methyltetrahydro-2H-pyran-2-yl)pyridin-3-yl)-6-(2,6-difluorophenyl)-5-fluoropicolinamide]	–	–	830 nM	9500 nM	–
CC(C)(C)[C@H]1O[C@@H](c2ccncc2NC(=O)c2nc(-c3ccccc3)cnc2N)C[C@H](N)[C@@H]1O [Example 286, 3-amino-N-(4-((2R,4S,5S,6R)-4-amino-6-tert-butyl-5-hydroxytetrahydro-2H-pyran-2-yl)pyridin-3-yl)-6-phenylpyrazine-2-carboxamide]	–	–	–	–	0.5 nM
C[C@]1(O)[C@@H](N)C[C@H](c2ccncc2NC(=O)c2nc(-c3ccccc3)cnc2N)OC12CC2 [Example 351, 3-amino-N-(4-((5R,7S,8S)-7-amino-8-hydroxy-8-methyl-4-oxaspiro[2.5]octan-5-yl)pyridin-3-yl)-6-phenylpyrazine-2-carboxamide]	–	–	5 nM	–	0.4 nM

Second part, the compound after the results:

IC50 (PKCα)	IC50 (GSK3β)	IC50 (FLT3D835Y kinase)	IC50 (PKCα; PKCα Caliper assay)	IC50 (GSK3β; ATP depletion assay)	SMILES
60 nM	1 nM	–	–	–	C=C1[C@@H](O)C[C@@H](c2ccncc2NC(=O)c2nc(-c3ccccc3)cnc2N)OC12CC2 [Example 5, 3-amino-N-(4-((5S,7S)-7-hydroxy-8-methylene-4-oxaspiro[2.5]octan-5-yl)pyridin-3-yl)-6-phenylpyrazine-2-carboxamide]
> 10000 nM	454 nM	–	–	–	C[C@H]1O[C@@H](c2ccncc2NC(=O)c2nc(-c3ccccc3)ncc2N)C[C@@H](O)[C@]1(C)O [Example 32, 5-amino-N-(4-((2R,4R,5S,6R)-4,5-dihydroxy-5,6-dimethyltetrahydro-2H-pyran-2-yl)pyridin-3-yl)-2-phenylpyrimidine-4-carboxamide]
100 nM	1 nM	–	–	–	Nc1ncc(-c2ccccc2)nc1C(=O)Nc1cnccc1[C@H]1C[C@@H](O)[C@H](O)[C@@H](CCl)O1 [Example 36, 3-amino-N-(4-((2R,4R,5S,6S)-6-(chloromethyl)-4,5-dihydroxytetrahydro-2H-pyran-2-yl)pyridin-3-yl)-6-phenylpyrazine-2-carboxamide]
820 nM	1 nM	–	–	–	C[C@H]1O[C@@H](c2ccncc2NC(=O)c2nc(-c3ccccc3)cnc2N)[C@H](F)[C@@H](O)[C@]1(C)O [Example 58, 3-amino-N-(4-((2S,3R,4S,5S,6R)-3-fluoro-4,5-dihydroxy-5,6-dimethyltetrahydro-2H-pyran-2-yl)pyridin-3-yl)-6-phenylpyrazine-2-carboxamide]
41 nM	2 nM	–	–	–	C[C@@H]1O[C@H](c2ccncc2NC(=O)c2nc(-c3ccccc3)cnc2N)[C@@H](F)[C@H](O)[C@@]1(C)O [Example 63, 3-amino-N-(4-((2R,3S,4R,5R,6S)-3-fluoro-4,5-dihydroxy-5,6-dimethyltetrahydro-2H-pyran-2-yl)pyridin-3-yl)-6-phenylpyrazine-2-carboxamide]
490 nM	1 nM	–	–	–	C[C@H]1O[C@@H](c2ccncc2NC(=O)c2nc(-c3ccccc3)cnc2N)C[C@@H](O)[C@]1(C)O [Example 84, 3-amino-N-(4-((2R,4R,5S,6R)-4,5-dihydroxy-5,6-dimethyltetrahydro-2H-pyran-2-yl)pyridin-3-yl)-6-phenylpyrazine-2-carboxamide]
790 nM	3 nM	–	–	–	C[C@@H]1O[C@H](c2ccncc2NC(=O)c2nc(-c3ccccc3)cnc2N)C[C@H](O)[C@@]1(C)O [Example 86, 3-amino-N-(4-((2S,4S,5R,6S)-4,5-dihydroxy-5,6-dimethyltetrahydro-2H-pyran-2-yl)pyridin-3-yl)-6-phenylpyrazine-2-carboxamide]
310 nM	1.4 nM	7.4 nM	–	–	Nc1ncc(-c2ccccc2)nc1C(=O)Nc1cnccc1[C@H]1C[C@@H](O)[C@@]2(O)CCCC[C@H]2O1 [Example 173, 3-amino-N-(4-((2R,4R,4aS,8aR)-4,4a-dihydroxyoctahydro-2H-chromen-2-yl)pyridin-3-yl)-6-phenylpyrazine-2-carboxamide]
2600 nM	48.5 nM	1100 nM	–	–	Nc1ncc(-c2ccccc2)nc1C(=O)Nc1cnccc1[C@@H]1C[C@H](O)[C@]2(O)CCCC[C@@H]2O1 [Example 176, 3-amino-N-(4-((2S,4S,4aR,8aS)-4,4a-dihydroxyoctahydro-2H-chromen-2-yl)pyridin-3-yl)-6-phenylpyrazine-2-carboxamide]

Reference: US20130109682A1, “CYCLIC ETHER COMPOUNDS USEFUL AS KINASE INHIBITORS” (NOVARTIS AG, priority 2010, published 2013)
